Measurements from patent US20130261024A1, “System for Identifying Connections Between Perturbagens and Genes Associated with a Skin Hyperpigmentation Condition” (THE PROCTER & GAMBLE COMPANY, priority 2012, published 2013).

Experiments:
[1] = tested on: hyperpigmented spots; assay: 9-week randomized, double-blind, vehicle-controlled, split-face tone benefit clinical study; type: in vivo, Chinese females; settings: 0.05% in SC-99 vehicle
From the text: This Example provides evidence of the advantages of using composite signatures and illustrates clinical affirmation of the C-map model for predicting efficacy of skin-lightening agents. This Example supports embodiments related to composite signatures (as described at the end of Example 3). An illustrative “Skin Tone” Signature developed from a genomics study using a composite skin-lightening benchmark agent signature is derived from Niacinamide, Hexamidine, Sepiwhite, and NAG. The signature is used to query C-map and generate a list of potential skin-lightening agents. A top hit, Chlorhexidine Diactate (CD) is entered into clinical testing for confirmation of efficacy. The control for clinical efficacy is a 5% Niacinamide+1% Sepiwhite formulation in the control vehicle.
Primary endpoints are changes in color spot area fraction (image analysis) and melanin spot area fraction (NC2) from baseline. Secondary endpoints are changes from baseline in L*a*b (color image analysis), mean melanin gray scale (NC2), and melanin evenness (NC2). Texture area fraction and pore area fraction are also evaluated to explore impact on other aspects relating to overall skin tone. […] Statistically significant superiority to the high efficacy benchmark skin active agent to vehicle performance is the clinical success criteria.
Study Design: The experimental protocol included a 9-week (1-week preconditioning & 8-week treatment), randomized, double-blind, round robin, vehicle-controlled, split-face tone benefit study. The subject population included 330 Chinese females, 25-55 years old with hyperpigmented spots. 318 subjects completed the entire study. […] Olay Complete SPF 15 UV Moisturizing Lotion is concomitantly used during pre-conditioning and treatment. 0.5 g each test product per half-face (forehead to jaw line; ˜4 mg/cm^2) is dosed 2× a day (morning/evening). Color SAF and treatment area, Melanin SAF, gray scale, evenness by NC2, and additional measurement of Fine Lines and Wrinkle and Texture are by REAL 3.01A. Data collection points include baseline, and ends of weeks 4, 6 and 8. The tested hypothesis is that there is no difference in clinical endpoint versus the benchmark composition treatment. Study site is Kuntai Clinical Center, Beijing, China and study time frame is February 2010 (pre-conditioning) to April 2010.

[2] = tested on: tert-Keratinocyte (tKC) cells; assay: C-map query with the composite "skin tone" benchmark signature (Niacinamide, Sepiwhite, NAG, Hexamidine); type: cell-based, human; settings: composite signature of Example 3
Method: (§1) Individual experiments (referred to as batches) generally comprise 30 to 96 samples analyzed using Affymetrix GeneChip® technology platforms, containing 6 replicates of the vehicle control (e.g., DSMO), 2 replicate samples of a positive control that gives a strong reproducible effect in the cell type used, and samples of the test material/perturbagen. Replication of the test material is done in separate batches due to batch effects. In vitro testing was performed in 6-well plates to provide sufficient RNA for GeneChip® analysis (2-4 μg total RNA yield/well).
Human telomerized keratinocytes (tKC) were obtained from the University of Texas, Southwestern Medical Center, Dallas, Tex. tKC cells were grown in EpiLife® media with 1× Human Keratinocyte Growth Supplement (Invitrogen, Carlsbad, Calif.) on collagen I coated cell culture flasks and plates (Becton Dickinson, Franklin Lakes, N.J.). Keratinocytes were seeded into 6-well plates at 20,000 cells/cm^2 24 hours before chemical exposure. Human skin fibroblasts (BJ cell line from ATCC, Manassas, Va.) were grown in Eagle's Minimal Essential Medium (ATCC) supplemented with 10% fetal bovine serum (HyClone, Logan, Utah) in normal cell culture flasks and plates (Corning, Lowell, Mass.). BJ fibroblasts were seeded into 6-well plates at 12,000 cells/cm^2 24 hours before chemical exposure. […]

[3] = tested on: teleomerized human keratinocytes (tKC); assay: C-map query with the Retinoic Acid/Keratinocyte 200 benchmark signature; type: cell-based; settings: Retinoic Acid Keratinocyte RA-200 signature
Method: as §1
Human telomerized keratinocytes (tKC) were obtained from the University of Texas, Southwestern Medical Center, Dallas, Tex. tKC cells were grown in EpiLife® media with 1× Human Keratinocyte Growth Supplement (Invitrogen, Carlsbad, Calif.) on collagen I coated cell culture flasks and plates (Becton Dickinson, Franklin Lakes, N.J.). Keratinocytes were seeded into 6-well plates at 20,000 cells/cm^2 24 hours before chemical exposure. […]
(a) Tert-keratinocytes (tKC) RA Signatures. […] Cells were treated with 1 uM tRA for 6 hr, tested in triplicate, with triplicate DMSO controls, and analyzed on HG-U133A GeneChips. […]

Row | Structure (SMILES) | Pore area fraction ([1]; compared to vehicle, week 8) | Texture area fraction ([1]; compared to vehicle, week 8) | spot area fraction color test ([1]; compared to vehicle, week 8) | spot area fraction NC2 test ([1]; compared to vehicle, weeks 6 and 8) | Basal skin tone ([1]; versus vehicle, week 8) | NC2 Melanin evenness test ([1]; versus vehicle, weeks 6 and 8) | connectivity to tone composite benchmark signature query [2] | average C-map score [3]
1 | CC(=O)O.CC(=O)O.NC(=N\CCCCCC/N=C(N)/N=C(\N)Nc1ccc(Cl)cc1)/N=C(\N)Nc1ccc(Cl)cc1 [CD, Chlorhexidine Diacetate] | superior efficacy | superior efficacy | significantly fewer spots | significantly reduced fraction | superiority | superiority to the vehicle | top connectivity hit | 
2 | CC1=C(/C=C/C(C)=C/C=C/C(C)=C/C(=O)O)C(C)(C)CCC1 [Retinoic acid, all-trans-retinoic acid] |  |  |  |  |  |  |  | highest score of the materials tested
